# According to patent US20240115654A1, “INTRAVENOUS ADMINISTRATION OF ENGINEERED ANTIMICROBIAL AMPHIPHILIC PEPTIDES” (priority 2021, published 2024):
# Read-outs that look alike come from different tables or passages of the source. Peptide text beside a SMILES is read from it.
# From the text: All subjects who met eligibility criteria were confined to the clinical research unit from […] through Day 3. At admission, physical examination, vital signs, 12 lead ECG and weight were obtained, medical and medication history were updated if necessary, safety blood tests (hematology and chemistry), urinalysis, urine drug screen and an alcohol breath test were repeated and a urine pregnancy test was done for women of childbearing potential.
# At each dose level, there were 2 sentinel subjects, (1 active, 1 placebo), who were dosed at least 48 hours in advance of the other subjects in their respective group. Following review of safety data, including physical examination, vital signs, and review of adverse events from the first 2 subjects, enrolment in the cohort continued.
# A 12-lead ECG was performed on Day 1, within 60 minutes of infusion start (in triplicate), mid-way through the infusion, at the completion of the infusion, 30 minutes after completion of the infusion and at various timepoints following the end of the infusion.
# Vital signs were recorded within 60 minutes pre-dose, at the mid-point of the infusion and post dose vitals were assessed at completion of the infusion, 0.5, 1, 2, 3, 4, 6, 9, 12, 24 and 48 hours post dose, after at least 3 minutes of rest in supine position.
# Subjects returned to the study center 7 days after dosing, for the termination visit. A full physical examination, vital signs and weight were obtained, concomitant medications were updated if necessary, safety blood specimens (haematology and chemistry, PT and aPTT) and urine were collected for urinalysis and urine drug screening. A serum pregnancy test was done for women of childbearing potential and a 12-lead ECG was performed.
# In this study dose limiting toxicity (DLT) was defined as any drug related ≥Grade 3 AEs occurring despite optimal therapeutic interventions (which included but were not limited to allergic/hypersensitivity reactions, dermatological reactions/infusion site reactions, haematological toxicities such as neutropenia, thrombocytopenia and anaemia and clinical chemistry abnormalities) experienced up to Day 7 (Termination Visit).
# (§1) All subjects who received any amount of study drug were included in the safety analysis (Safety population).
# The study was a double blinded, randomized, placebo-controlled study. The placebo administered was 0.9% sodium chloride.
# On Day 1 (day of dosing), subjects were randomly assigned either peptide IV or Placebo IV. At each dose level, there were 2 sentinel subjects, (1 active, 1 placebo), who were dosed at least 48 hours in advance of the other subjects in their respective group. Following review of safety data, including physical examination, vital signs, and review of adverse events from the first 2 subjects, enrolment in the cohort continued. All subjects who met eligibility criteria were confined to the clinical research unit from Day −2 through Day 3. At admission, physical examination, vital signs, 12 lead ECG and weight were obtained, medical and medication history were updated if necessary, safety blood tests (hematology and chemistry), urinalysis, urine drug screen and an alcohol breath test were repeated and a urine pregnancy test was done for women of childbearing potential.
# as §1
# [1] = 0.05 mg/kg IV 1 hr infusion (N = 6)
# [2] = 0.5 mg/kg IV 2 hr infusion (N = 6)
# [3] = Cohort 1: 0.05 mg/kg IV 1-hr infusion (N = 6)
smiles,measurement,setting,value
CC(C)[C@H](NC(=O)[C@H](Cc1c[nH]c2ccccc12)NC(=O)[C@H](CCCNC(=N)N)NC(=O)[C@H](CCCNC(=N)N)NC(=O)[C@@H](NC(=O)[C@@H](NC(=O)[C@H](CCCNC(=N)N)NC(=O)[C@@H](NC(=O)[C@@H](NC(=O)[C@H](CCCNC(=N)N)NC(=O)[C@H](CCCNC(=N)N)NC(=O)[C@H](Cc1c[nH]c2ccccc12)NC(=O)[C@@H](NC(=O)[C@H](CCCNC(=N)N)NC(=O)[C@H](CCCNC(=N)N)NC(=O)[C@@H](NC(=O)[C@H](CCCNC(=N)N)NC(=O)[C@H](CCCNC(=N)N)NC(=O)[C@@H](NC(=O)[C@H](Cc1c[nH]c2ccccc12)NC(=O)[C@H](CCCNC(=N)N)NC(=O)[C@@H](N)CCCNC(=N)N)C(C)C)C(C)C)C(C)C)C(C)C)C(C)C)C(C)C)C(C)C)C(=O)N[C@@H](CCCNC(=N)N)C(=O)N[C@@H](CCCNC(=N)N)C(N)=O [SEQ ID NO: 1] (H-RRWVRRVRRVWRRVVRVVRRWVRR-NH2),"Related TEAE Abdominal [?], n participants",[1],0
same,"Related TEAE Blood and lymphatic system disorders, n participants",[1],0
same,"Related TEAE Co[?], n participants",[1],0
same,"Related TEAE D[?] (r32, GI SOC), n participants",[1],0
same,"Related TEAE F[?], n participants",[1],0
same,"Related TEAE Gastrointestinal disorders, n participants",[1],0
same,"Related TEAE In[?] related reaction, n participants",[1],0
same,"Related TEAE Infusion [?] reaction, n participants",[1],0
same,"Related TEAE Injury, poi[?] procedural complications, n participants",[1],0
same,"Related TEAE M[?] and connective tissure disorders, n participants",[1],0
same,"Related TEAE Myalgia, n participants",[1],0
same,"Related TEAE Nervous system disorders, n participants",[1],0
same,"Related TEAE O[?] (r25, vascular SOC), n participants",[1],0
same,"Related TEAE O[?] (r38, respiratory SOC), n participants",[1],0
same,"Related TEAE P[?] (r26, vascular SOC), n participants",[1],0
same,"Related TEAE Pain in extremity, n participants",[1],0
same,"Related TEAE Respiratory, thoracic and m[?] disorders, n participants",[1],0
same,"Related TEAE T[?], n participants",[1],0
same,"Related TEAE Vascular disorders, n participants",[1],0
same,"Related TEAE Ve[?], n participants",[1],0
same,"Related TEAE [?] headache, n participants",[1],0
same,"TEAE A[?] (r19, skin SOC), n participants",[1],0
same,"TEAE A[?] (r46, GI SOC), n participants",[1],0
same,"TEAE Back pain, n participants",[1],0
same,"TEAE Blood and lymphatic system disorders, n participants",[1],0
same,"TEAE Constipation, n participants",[1],0
same,"TEAE D[?] (r54), n participants",[1],0
same,"TEAE D[?] contact, n participants",[1],0
same,"TEAE Dia[?], n participants",[1],0
same,"TEAE Headache, n participants",[1],0
same,"TEAE In[?] (r53), n participants",[1],0
same,"TEAE Injury, [?] and procedural complications, % participants",[1],50.0%
same,"TEAE Injury, [?] and procedural complications, M occurrences",[1],3
same,"TEAE Injury, [?] and procedural complications, n participants",[1],3
same,"TEAE Mu[?], n participants",[1],0
same,"TEAE Musculoskeletal and connective tissue disorders, n participants",[1],0
same,"TEAE My[?], n participants",[1],0
same,"TEAE O[?] (r37, vascular SOC), n participants",[1],0
same,"TEAE O[?] pain, n participants",[1],0
same,"TEAE Pain [?], n participants",[1],0
same,"TEAE Participants with at least one [?], M occurrences",[1],7
same,"TEAE Participants with at least one [?], n participants",[1],5
same,"TEAE R[?] (r20, skin SOC), n participants",[1],0
same,"TEAE Respiratory, thoracic and [?] disorders, n participants",[1],0
same,"TEAE Severity Grade 1, occurrences (M)",[1],7
same,"TEAE Severity Grade 1, participants %",[1],83.3%
same,"TEAE Severity Grade 1, participants n",[1],5
same,"TEAE Severity Grade 2, participants n",[1],0
same,"TEAE Skin and [?] tissue [?], n participants",[1],0
same,"TEAE Skin reaction, n participants",[1],0
same,"TEAE Thermal [?], n participants",[1],0
same,"TEAE V[?] (r24, general SOC), n participants",[1],0
same,"TEAE V[?] access [?] (r10), % participants",[1],50.0%
same,"TEAE V[?] access [?] (r10), M occurrences",[1],3
same,"TEAE V[?] access [?] (r10), n participants",[1],3
same,"TEAE V[?] puncture site [?] (r28), n participants",[1],0
same,"TEAE Vascular access site [?] (r11), n participants",[1],0
same,"TEAE Vascular access site [?] (r12), n participants",[1],0
same,"TEAE Vascular access site [?] (r15), n participants",[1],0
same,"TEAE Vascular disorders, n participants",[1],0
same,"TEAE [?] (r13, under Injury SOC), n participants",[1],0
same,"TEAE [?] (r25, general SOC), n participants",[1],0
same,"TEAE [?] (r26, general SOC), n participants",[1],0
same,"TEAE [?] (r38, vascular SOC), n participants",[1],0
same,"TEAE [?] (r39, vascular SOC), n participants",[1],0
same,"TEAE [?] (r44, nervous SOC), n participants",[1],0
same,"TEAE [?] (r52, blood SOC), n participants",[1],0
same,"TEAE, occurrences (M)",[1],7
same,"Participants Reporting at least One TEAE, %",[2],100%
same,"Related TEAE Blood and lymphatic system disorders, n participants",[2],0
same,"Related TEAE Co[?], n participants",[2],0
same,"Related TEAE F[?], n participants",[2],0
same,"Related TEAE In[?] related reaction, n participants",[2],0
same,"Related TEAE Injury, poi[?] procedural complications, n participants",[2],0
same,"Related TEAE M[?] and connective tissure disorders, n participants",[2],0
same,"Related TEAE Myalgia, n participants",[2],0
same,"Related TEAE Nervous system disorders, n participants",[2],0
same,"Related TEAE O[?] (r25, vascular SOC), n participants",[2],0
same,"Related TEAE O[?] (r38, respiratory SOC), n participants",[2],0
same,"Related TEAE P[?] (r26, vascular SOC), n participants",[2],0
same,"Related TEAE Pain in extremity, n participants",[2],0
same,"Related TEAE Respiratory, thoracic and m[?] disorders, n participants",[2],0
same,"Related TEAE T[?], n participants",[2],0
same,"Related TEAE V[?] (r18), n participants",[2],0
same,"Related TEAE Vascular disorders, n participants",[2],0
same,"Related TEAE [?] headache, n participants",[2],0
same,"TEAE A[?] (r19, skin SOC), n participants",[2],0
same,"TEAE Abdominal pain, n participants",[2],0
same,"TEAE Blood and lymphatic system disorders, n participants",[2],0
same,"TEAE Constipation, n participants",[2],0
same,"TEAE D[?] contact, n participants",[2],0
same,"TEAE Dizziness, n participants",[2],0
same,"TEAE Gastrointestinal disorders, M occurrences",[2],2
same,"TEAE Gastrointestinal disorders, n participants",[2],1
same,"TEAE Injury, [?] and procedural complications, M occurrences",[2],4
same,"TEAE Injury, [?] and procedural complications, n participants",[2],3
same,"TEAE Mu[?], n participants",[2],0
same,"TEAE My[?], n participants",[2],0
same,"TEAE O[?] (r37, vascular SOC), n participants",[2],0
same,"TEAE O[?] pain, n participants",[2],0
same,"TEAE P[?] (r43, nervous SOC), n participants",[2],0
same,"TEAE Respiratory, thoracic and [?] disorders, n participants",[2],0
same,"TEAE Severity Grade 1, occurrences (M)",[2],12
same,"TEAE Severity Grade 1, participants %",[2],100%
same,"TEAE Severity Grade 1, participants n",[2],6
same,"TEAE Severity Grade 2, occurrences (M)",[2],3
same,"TEAE Severity Grade 2, participants n",[2],2
same,"TEAE Skin and [?] tissue [?], M occurrences",[2],3
same,"TEAE Skin and [?] tissue [?], n participants",[2],2
same,"TEAE Skin reaction, M occurrences",[2],2
same,"TEAE Skin reaction, n participants",[2],1
same,"TEAE Thermal [?], n participants",[2],0
same,"TEAE V[?] puncture site [?] (r27), n participants",[2],0
same,"TEAE V[?] puncture site [?] (r28), n participants",[2],0
same,"TEAE Vascular access site [?] (r15), n participants",[2],0
same,"TEAE Vascular disorders, n participants",[2],0
same,"TEAE [?] (r13, under Injury SOC), n participants",[2],0
same,"TEAE [?] (r26, general SOC), n participants",[2],0
same,"TEAE [?] (r38, vascular SOC), n participants",[2],0
same,"TEAE [?] (r39, vascular SOC), n participants",[2],0
same,"TEAE [?] (r44, nervous SOC), n participants",[2],0
same,"TEAE [?] (r52, blood SOC), n participants",[2],0
same,"TEAE, occurrences (M)",[2],15
same,overall safety and tolerability,"0.05 to 0.5 mg/kg, drug concentration below […] and rate of infusion below 25 mg/hr",safe and well tolerated
same,"Number of Participants Reporting at least: Onc TEAE Leading to Study Withdrawal, n (%)",[3],0
same,"Number of Participants Reporting at least: One Dose-Limiting Toxicity, n (%)",[3],0
same,"Number of Participants Reporting at least: One Related TEAE, n (%)",[3],1 (16.7%)
same,"Number of Participants Reporting at least: One Serious TEAE, n (%)",[3],0
same,"Number of Participants Reporting at least: One TEAE Leading to Study Drug Discontinuation, n (%)",[3],0
same,"Number of Participants Reporting at least: One TEAE with Common Terminology Criteria for Adverse Events (CTCAE) Toxicity ≥ Grade 3, n (%)",[3],0
same,"Number of Participants Reporting at least: One TEAE, n (%)",[3],5 (83.3%)
same,"One Related TEAE, m",[3],1
same,"One TEAE, m",[3],7
same,"Participants With At Least 1 TEAE, n (%)",[3],5 (83.3%)
